Test results published in patent US20250134683A1, “MICRO-NANO MEDICAL STENT FOR DIRECTIONAL, QUANTITATIVE AND TIMED RELEASE OF DRUG AND PREPARATION METHOD THEREOF” (GUANGDONG UNIVERSITY OF TECHNOLOGY, priority 2023, published 2025).

Assay: sequential release of drugs from core-shell nano-disordered electrospun fiber structure
Assay type: physicochemical
Details: composite electrospun layer of Example 1; roxithromycin in shell layer fiber, human epidermal growth factor in core layer fiber
Source text: Moreover, the transmission electron microscopic image of the core-shell nano-disordered electrospun fiber structure in the composite electrospun layer prepared in Example 1 is shown in FIG. 3. […] The coaxial electrospinning realizes the sequential and timed release of the two drugs in the same electrospun layer. Further, the electrospun layer can be prepared by triaxial electrospinning or multiaxial electrospinning process, which has a core-shell structure of three core layers or multi-core layers, thereby achieving the sequential and timed release of three or more drugs in the same electrospun layer.

- order of drug release from core-shell fiber: released in advance
Compound: CC[C@H]1OC(=O)[C@H](C)[C@@H](O[C@H]2C[C@@](C)(OC)[C@@H](O)[C@H](C)O2)[C@H](C)[C@@H](O[C@@H]2O[C@H](C)C[C@H](N(C)C)[C@H]2O)[C@](C)(O)C[C@@H](C)/C(=N\OCOCCOC)[C@H](C)[C@@H](O)[C@]1(C)O [roxithromycin]
